Source: patent publication US20260248819A1, “MULTI-COMPONENT PHARMACEUTICAL COMPOSITIONS AND KITS CONTAINING NITRIC OXIDE RELEASING COMPOUNDS AND METHODS OF USING SAME” (priority 2022, published 2026)

Columns and labels:
[1] = tested on: P. aeruginosa strain PAK (N0049); test: Checkerboard assay, MD3 combined with a second antibiotic; type: cell-based, Pseudomonas aeruginosa; settings: for Lowest FICI, rep 1 / Lowest FICI, rep 2 / Lowest FICI, rep 3: antibiotic combined with MD3
Protocol: To quantify the combined effects of MD3 and a secondary antibiotic, a checkerboard assay was used, which is a two-dimensional, two-agent serial dilution that quantifies the effect of each drug alone and in combination. In patients with underlying pulmonary disease such as bronchiectasis, significant mucus in the lung results in bacterial infections that are primarily microaerobic (little oxygen) or anaerobic (no oxygen). Therefore, combinations of MD3 and six secondary antibiotics were evaluated under both aerobic and anaerobic conditions for a representative organism, Pseudomonas aeruginosa.
(§1) The checkerboard method was performed as follows. MD3 and the second antibiotic were tested at four times (4×) their minimum inhibitory concentration (MIC) alone (see Table 3). Stock solutions of MD3 and the secondary antibiotics were prepared at 4× the final concentration (i.e., 16× the MIC; called the 4× stocks).
MD3 and secondary antibiotics were tested at 4× their minimum inhibitory concentration (MIC) alone. […] MD3 and antibiotics were tested across a 7-point range of 2-fold concentration, as detailed in Table 3.
(§2) Bacterial cultures were prepared from frozen glycerol stocks stored at −80° C. by streaking on agar plates (see Table 4). Several well-isolated colonies were suspended in IX PBS, then diluted to 1×10^6 CFU/ml in liquid media. The cultures were diluted to 5×10^5 CFU/ml, when added to the antibiotic combinations in the checkerboard assay plate. Because colonies from strains N0010, N0046, and N0124 are difficult to suspend homogenously, they were first sub-cultured in 7H9 liquid media containing Middlebrook ADC supplement and 0.05% Tween-80, then incubated at 37° C. shaking for 3 days. This subculture was used to prepare the 1×10^6 CFU/ml culture.
(§3) To prepare the checkerboard assay plates, phosphate buffered saline (PBS) was added to wells BI through H8 of a 96-well plate. Next, 200 μl of the 4× second antibiotic stock was added to the empty wells in A1 through A8 of a 96-well plate, then serially diluted 1:1 down the plate using a multichannel pipette, stopping at row G. The final 100 μl from row G was discarded. […] At this step, all wells contain 4× the target concentration of the second antibiotic. Next, 100 μl of the 4× MD3 stock solution was added to wells A1 through H1 and serially diluted 1:1 across the plate to column 7 using a multichannel pipette. The final 100 μl in […] was discarded. […] After this step, all wells contain 2× the target concentrations for both MD3 and the second antibiotic. The wells in column 9 contain media alone, serving as media controls. The wells in column 10 contain media and bacteria, serving as growth controls. Finally, 100 μl of 5×10^5 CFU/ml bacterial culture was added to each well.
For experiments in which P. aeruginosa was grown under anaerobic conditions, 90 mM KNO3 was added to the CAMHB media, and the checkerboard assay plates were incubated in an anaerobic box containing anaerobic sachets.
(§4) The FICI was calculated for each well along the growth/no-growth border of the checkerboard assay plate. If the FICI of any well was greater than 4, antagonism was reported; otherwise, the lowest FICI value was reported. FICI values of ≤0.5 are considered synergistic, values of 0.51 to 1 are additive, and values of greater than 1 to 4 are indifferent. The rationale for this method of analysis is that, if any ratio of MD3:antibiotic is synergistic, then that combination has the potential for synergy, even if other ratios are not synergistic.

M. chimaera N0124 = test: Checkerboard assay, MD3 combined with a second antibiotic (NTM); type: cell-based, Mycobacterium chimaera; settings: strain N0124, aerobic
Protocol: as §1, §2
(§5) To prepare the checkerboard assay plates, phosphate buffered saline (PBS) was added to wells BI through H8 of a 96-well plate. […]
(§6) The FICI was calculated for each well along the growth/no-growth border of the checkerboard assay plate. […]

M. massiliense N0130 = test: as above; type: cell-based, Mycobacterium massiliense; settings: strain N0130, aerobic
Protocol: as §1, §2, §3
as §4, with “synergistic. […] If an experiment was repeated twice and the same classification observed (e.g., synergy observed in both replicates), then the average FICI was reported for that drug combination. […]” for “synergistic.”

[2] = tested on: Candida auris (Strain N0220); test: Checkerboard assay, MD3 combined with a secondary antifungal; type: cell-based; settings: for Interaction (at 24 hours) / Lowest FICI (at 24 hours) / Interaction (at 48 hours) / Lowest FICI (at 48 hours): antifungal combined with MD3
Text: (§7) To quantify the combined effects of MD3 and a secondary antifungal, a checkerboard assay was used as described above in Example 1. The antibiotics tested in this study included voriconazole, a triazole antifungal that inhibits the growth of the fungi causing the infection; itraconazole, an azole antifungal that inhibits the growth of fungi; and amphotericin B, a polyene antifungal that binds to ergosterol in fungal cell membranes, developing holes in the membrane and allowing cell components to leak out, causing cell death.
(§8) The fungal species used in this study included Aspergillus fumigatus (strain N0219) and Candida auris (Strain N0220). The checkerboard method was performed as described above in Example 1. The effects of the antifungal combinations were classified according to the fractional inhibitory concentration index (FICI) as described above in Example 1 at time points of 24 hours and 48 hours.

S. aureus strain N0040 = test: Checkerboard assay, MD3 combined with a second antibiotic; type: cell-based, Staphylococcus aureus; settings: aerobic
Protocol: as §1, §2, §3
as §4, with “synergistic. […] If an experiment was repeated twice and the same classification observed (e.g., synergy observed in both replicates), then the average FICI was reported for that drug combination. If the results for two duplicates are discordant in their classification, a third experiment must be conducted and the average FICI from the triplicate experiments was used for final classification.” for “synergistic.”

planktonic P. aeruginosa = test: Minimum inhibitory concentration (MIC) of an agent alone; type: cell-based; settings: Pseudomonas aeruginosa, strain PAK grown aerobically
Protocol: MD3 and secondary antibiotics were tested at 4× their minimum inhibitory concentration (MIC) alone. For example, the MICMD3 against P. aeruginosa strain PAK grown aerobically is 31.25 μg/ml, and the MICTOB is 3.125 μg/ml; thus, the highest concentrations tested in the checkerboard assay were 125 µg/ml MD3 and 12.5 μg/ml TOB. MD3 and antibiotics were tested across a 7-point range of 2-fold concentration, as detailed in Table 3.
as §3, with “Finally, 100 μl of 5×10^5 CFU/ml bacterial culture was added to each well.” left out

P. aeruginosa biofilms = test: Eradication of P. aeruginosa biofilms (MBEC assay); type: cell-based, Pseudomonas aeruginosa; settings: aerobic and anaerobic biofilms; treated 18-24 hours
Protocol: The minimum biofilm eradication concentration (MBEC) of MD3 was determined for P. aeruginosa biofilms grown under aerobic and anaerobic conditions. The MBEC is defined as a 3-log reduction in biofilm-associated CFUs. Biofilms were generated using the MBEC Assay™ growth device (Innovotech; Edmonton, Alberta, Canada) in cation-adjusted Mueller-Hinton broth (CAMHB) at 37° C. for 24 hours and treated with MD3 or tobramycin for an additional 18-24 hours. Remaining biofilms were disrupted by sonication and plated to determine the surviving CFU/mL following a single treatment.

[3] = tested on: M. abscessus strain N0010; test: Checkerboard assay, MD3 combined with a second antibiotic (NTM); type: cell-based, Mycobacterium abscessus; settings: aerobic
Protocol: as §1, §2, §5, §6

[4] = tested on: M. abscessus strain N0046; test: as above; type: cell-based, Mycobacterium abscessus subsp. bolletii; settings: aerobic
Protocol: as §1, §2, §5, §6

[5] = tested on: Aspergillus fumigatus (strain N0219); test: Checkerboard assay, MD3 combined with a secondary antifungal; type: cell-based
Text: as §7, §8

[6] = 24 hours, antifungal combined with MD3
[7] = 48 hours, antifungal combined with MD3

Colistin [CST]
Lowest FICI, rep 1 ([1]; Aerobic): 0.56
Lowest FICI, rep 2 ([1]; Aerobic): 0.38
Lowest FICI, rep 1 ([1]; Anaerobic): 0.56

O=C(O)c1cn(C2CC2)c2cc(N3CCNCC3)c(F)cc2c1=O [CIP, Ciprofloxacin]
Lowest FICI, rep 1 ([1]; Aerobic): 0.56
Lowest FICI, rep 2 ([1]; Aerobic): 0.31
Lowest FICI, rep 3 ([1]; Aerobic): 0.56
Lowest FICI, rep 1 ([1]; Anaerobic): 0.56

CC[C@H]1OC(=O)[C@H](C)[C@@H](O[C@H]2C[C@@](C)(OC)[C@@H](O)[C@H](C)O2)[C@H](C)[C@@H](O[C@@H]2O[C@H](C)C[C@H](N(C)C)[C@H]2O)[C@](C)(OC)C[C@@H](C)C(=O)[C@H](C)[C@@H](O)[C@]1(C)O [CLR, Clarithromycin]
Lowest FICI, rep 1 (M. chimaera N0124): 1.00
Lowest FICI, rep 1 (M. massiliense N0130): 0.56
Lowest FICI, rep 2 (M. massiliense N0130): 1.00

C[C@@H](O)[C@H]1C(=O)N2C(C(=O)O)=C(S[C@@H]3CN[C@H](C(=O)N(C)C)C3)[C@H](C)[C@H]12 [MER, Meropenem]
Lowest FICI, rep 1 ([1]; Aerobic): 0.53
Lowest FICI, rep 2 ([1]; Aerobic): 0.56
Lowest FICI, rep 1 ([1]; Anaerobic): 0.56

C[C@H]1[C@H](NC(=O)/C(=N\OC(C)(C)C(=O)O)c2csc(N)n2)C(=O)N1S(=O)(=O)O [ATM, Aztreonam]
Lowest FICI, rep 1 ([1]; Aerobic): 0.31
Lowest FICI, rep 2 ([1]; Aerobic): 0.31
Lowest FICI, rep 1 ([1]; Anaerobic): 0.56

Gentamicin
Lowest FICI, rep 1 ([1]; Aerobic): 1.06
Interaction of MD3 with the antibiotic (FICI classification) ([1]; aerobic conditions): indifferent (values of greater than 1 to 4 are indifferent)

C[C@@H]1[C@H](O)[C@@H](C)/C=C/C=C/C=C/C=C/C=C/C=C/C=C/[C@H](O[C@@H]2O[C@H](C)[C@@H](O)[C@H](N)[C@@H]2O)C[C@@H]2O[C@](O)(C[C@@H](O)C[C@@H](O)[C@H](O)CC[C@@H](O)C[C@@H](O)CC(=O)O[C@H]1C)C[C@H](O)[C@H]2C(=O)O [Amphotericin B, amphotericin B]
Interaction (at 24 hours) [2]: Additive
Lowest FICI (at 24 hours) [2]: 0.625
Interaction (at 48 hours) [2]: Additive
Lowest FICI (at 48 hours) [2]: 0.5625

NC[C@H]1O[C@H](O[C@H]2[C@H](O)[C@@H](O[C@H]3O[C@H](CO)[C@@H](O)[C@H](N)[C@H]3O)[C@H](N)C[C@@H]2N)[C@H](N)C[C@@H]1O [TOB, Tobramycin]
Lowest FICI, rep 1 ([1]; Aerobic): 0.56
Lowest FICI, rep 2 ([1]; Aerobic): 0.63
Lowest FICI, rep 3 ([1]; Aerobic): 0.56
Lowest FICI, rep 1 ([1]; Anaerobic): 0.56
Interaction of MD3 with the antibiotic (FICI classification) (S. aureus strain N0040): indifferent (values of greater than 1 to 4 are indifferent)
Lowest FICI, rep 1 (S. aureus strain N0040; combined with MD3): 1.03
MIC (planktonic P. aeruginosa): 3.12 µg/mL
Biofilm eradication (MBEC, 3-log reduction in biofilm-associated CFUs) (P. aeruginosa biofilms): only effective against aerobic biofilms

O=C([O-])CC(O)(CC(=O)[O-])C(=O)[O-].[Ga+3] [GaCi, Gallium citrate]
Lowest FICI, rep 1 ([1]; Aerobic): 0.38
Lowest FICI, rep 2 ([1]; Aerobic): 0.38
Lowest FICI, rep 3 ([1]; Aerobic): 0.25
Lowest FICI, rep 1 [3]: 0.56
Lowest FICI, rep 1 [4]: 0.56
Interaction of MD3 with the antibiotic (FICI classification) (S. aureus strain N0040): synergistic (FICI values of ≤0.5 are considered synergistic)
Lowest FICI, rep 1 (S. aureus strain N0040; combined with MD3): 0.25
Lowest FICI, rep 2 (S. aureus strain N0040; combined with MD3): 0.19

C[C@@H](c1ncncc1F)[C@](O)(Cn1cncn1)c1ccc(F)cc1F [Voriconazole, voriconazole]
Interaction (at 24 hours) [5, 6]: Additive
Lowest FICI (at 24 hours) [5, 6]: 0.625
Interaction (at 48 hours) [5, 7]: Additive
Lowest FICI (at 48 hours) [5, 7]: 0.313
Interaction of MD3 with the antifungal (summary) ([5]; time point not separated): at least additive
Interaction (at 24 hours) [2]: Additive
Lowest FICI (at 24 hours) [2]: 0.375
Interaction (at 48 hours) [2]: Additive
Lowest FICI (at 48 hours) [2]: 0.5625
Interaction of MD3 with the antifungal (summary) ([2]; time point not separated): at least additive

CC(C)(O/N=C(\C(=O)N[C@@H]1C(=O)N2C(C(=O)[O-])=C(C[n+]3ccccc3)CS[C@H]12)c1csc(N)n1)C(=O)O [CAZ, ceftazidime]
Lowest FICI, rep 1 ([1]; Aerobic): 0.38
Lowest FICI, rep 2 ([1]; Aerobic): 0.31
Lowest FICI, rep 1 ([1]; Anaerobic): 0.50

CCC(C)n1ncn(-c2ccc(N3CCN(c4ccc(OCC5COC(Cn6cncn6)(c6ccc(Cl)cc6Cl)O5)cc4)CC3)cc2)c1=O (stereo not shown) [Itraconazole, itraconazole]
Lowest FICI (at 24 hours) [5, 6]: 0.625
Lowest FICI (at 48 hours) [5, 7]: 0.5625

NCC[C@H](O)C(=O)N[C@@H]1C[C@H](N)[C@@H](O[C@H]2O[C@H](CN)[C@@H](O)[C@H](O)[C@H]2O)[C@H](O)[C@H]1O[C@H]1O[C@H](CO)[C@@H](O)[C@H](N)[C@H]1O [AMK, Amikacin]
Lowest FICI, rep 1 [3]: 0.56
Lowest FICI, rep 1 [4]: 0.56
Lowest FICI, rep 1 (M. chimaera N0124): 0.75
Lowest FICI, rep 1 (M. massiliense N0130): 0.56
Lowest FICI, rep 2 (M. massiliense N0130): 0.56
